# In ChEMBL document CHEMBL3507680, “University of Dundee, Gates Library screen for HepG2 cell viability”:
# Test: Human HepG2 cell viability assay in 384 well format
# Assay type: toxicity, cell-based
# Parameters: dose 125 nL, time 70.5 hour; concentration not given beside the values
# Conditions: HepG2 cells, read-out: Inhibition
compound,measurement,value
CCCn1c(=O)n(CCC(=O)N(C)Cc2ccc(C)o2)c2ccccc21,cytotoxicity at 70.5 h,-4.98%
Cc1ccc(OC2(C(=O)O)CCN(C/C=C/c3ccco3)CC2)cc1,cytotoxicity at 70.5 h,-7.6%
CC(C)NC(=O)c1ccc2c(c1)C(c1nc[nH]n1)CN2C (configuration not stated),cytotoxicity at 70.5 h,-8.61%
O=C(CN1CCOC(Cn2cccn2)C1)Nc1ccncc1 (configuration not stated),cytotoxicity at 70.5 h,-3.63%
COc1ccccc1CN1CCC(c2nccc(C)n2)C1 (configuration not stated),cytotoxicity at 70.5 h,27.1%
CCOc1ncccc1NC(=O)N1CCN(CC(=O)NC)CC1,cytotoxicity at 70.5 h,-8.56%
CCN(Cc1nccn1C)C(=O)c1ccc(NCc2ccccc2)nc1,cytotoxicity at 70.5 h,-2.21%
CC(C)n1[nH]c(=O)c2c1NC(=O)CC2c1ccncc1 (configuration not stated),cytotoxicity at 70.5 h,-11.3%
COc1ccc(C2=CCN(C(=O)C3CCS(=O)(=O)C3)CC2)cc1 (configuration not stated),cytotoxicity at 70.5 h,19.4%
COC(=O)C(c1cc(F)ccc1F)N(C)C(=O)c1cnccn1 (configuration not stated),cytotoxicity at 70.5 h,21.6%
Cc1ccncc1-n1cc(CCO)cn1,cytotoxicity at 70.5 h,-5.86%
CCn1cc(N2Cc3nc(N4CCC(O)CC4)ncc3C2=O)cn1,cytotoxicity at 70.5 h,2.23%
COc1cc(C(=O)N2CCC(c3n[nH]c(C4CC4)n3)CC2)ccc1C,cytotoxicity at 70.5 h,36.5%
O=C(C1=CCCC1)N1C[C@H]2CCC[C@@]2(COCc2ccncc2)C1,cytotoxicity at 70.5 h,3.16%
CC(NC(=O)N1CCc2ccccc21)c1nncn1C (configuration not stated),cytotoxicity at 70.5 h,-12.2%
c1nnc(Nc2cncc(C3CCCN3CC3CC3)n2)s1 (configuration not stated),cytotoxicity at 70.5 h,0.394%
O=C1CC(c2ccccc2)C2(CCN(CC3CC3)CC2)N1 (configuration not stated),cytotoxicity at 70.5 h,-5.14%
Cc1ccc(CN2CCC3(CCC3NS(=O)(=O)c3ccccc3)CC2)o1 (configuration not stated),cytotoxicity at 70.5 h,8.23%
Cc1c(-c2cc(C(F)F)nc3sc(C(N)=O)c(N)c23)cnn1C,cytotoxicity at 70.5 h,-1.99%
Cc1cn[nH]c1C1COCCN1Cc1c[nH]cn1 (configuration not stated),cytotoxicity at 70.5 h,4.32%
Cc1noc(C(C)C)c1C(=O)NCCC(=O)N1CCCCC1,cytotoxicity at 70.5 h,-19%
Cc1ccc(NC2CCN(C(=O)COC3CCCCC3)CC2)nn1,cytotoxicity at 70.5 h,20.5%
O=C(NC[C@H]1OC[C@@H](NCc2ccccc2)[C@@H]1O)Nc1ccc(F)cc1,cytotoxicity at 70.5 h,-4.13%
Cn1ccnc1CN1CCCN(Cc2noc(C3CC3)n2)CC1,cytotoxicity at 70.5 h,-1.01%
OC(CNc1ncnc2c1CCNCC2)C(F)(F)F (configuration not stated),cytotoxicity at 70.5 h,-4.22%
O[C@]12CCNC[C@H]1CN(c1ncccc1Cl)CC2,cytotoxicity at 70.5 h,-16.6%
O=S1(=O)C[C@@H]2[C@H](C1)N(Cc1cc(F)cc(Cl)c1)CCN2CCO,cytotoxicity at 70.5 h,-0.108%
O=C1CN(Cc2nnc(-c3ccc(Br)o3)o2)CCN1,cytotoxicity at 70.5 h,-7.06%
OC1(CN2CCCCC2)CCN(c2nccc(C(F)(F)F)n2)C1 (configuration not stated),cytotoxicity at 70.5 h,18.4%
CC(C)C1CN(c2cccc(C#N)n2)CCCN1Cc1ccc(F)cc1 (configuration not stated),cytotoxicity at 70.5 h,-15.7%
CSc1ccc(C(C(=O)O)N2CCC(CO)CC2)cc1 (configuration not stated),cytotoxicity at 70.5 h,25.1%
CC(Cc1ccco1)NC(=O)Nc1ccc(N(C)C)nc1 (configuration not stated),cytotoxicity at 70.5 h,-7.91%
CCc1noc(CS(=O)(=O)C/C=C/c2ccccc2)n1,cytotoxicity at 70.5 h,-10.8%
COC(=O)NCc1ccc(NC(=O)CC2=CCCCC2)cc1,cytotoxicity at 70.5 h,0.0251%
CCC(NC(=O)CCCNC(=O)OC)c1cc(F)ccc1F (configuration not stated),cytotoxicity at 70.5 h,-3.13%
Cc1cccc(N2CCN(CCNC(=O)C(C)n3cncn3)CC2)c1 (configuration not stated),cytotoxicity at 70.5 h,-6.98%
Cc1nc(CN2C(=O)CCC23CCN(c2ncccc2C)CC3)cs1,cytotoxicity at 70.5 h,33.3%
c1ccc2sc(NCC3(N4CCOCC4)CCSC3)nc2c1 (configuration not stated),cytotoxicity at 70.5 h,-4.14%
COCCn1cnnc1C1CCCN(c2cnccn2)C1 (configuration not stated),cytotoxicity at 70.5 h,-5.97%
CC(NCC(=O)Nc1ccc(N2CCCCCC2)cc1)c1cccs1 (configuration not stated),cytotoxicity at 70.5 h,-8.9%
O=C(c1cnc(Cc2c(Cl)cccc2Cl)nc1O)N1CCNCC1,cytotoxicity at 70.5 h,8.34%
COC(=O)C1CCN(C(=O)c2nnc3ccc(Cl)cc3n2)CC1,cytotoxicity at 70.5 h,-7.04%
NC(=O)C1CCCN(C(=O)c2cnc3c(cnn3C3CCCC3)c2)C1 (configuration not stated),cytotoxicity at 70.5 h,33%
Cn1cc(CN(C(=O)C2COc3ccccc3C2)C2CC2)cn1 (configuration not stated),cytotoxicity at 70.5 h,-9.16%
COCCN(Cc1ccc(F)cc1Cl)C(=O)c1c(C)noc1C,cytotoxicity at 70.5 h,2.4%
NC(=O)CC1CCCCN1C(=O)c1cccc(C(F)(F)F)c1 (configuration not stated),cytotoxicity at 70.5 h,-0.919%
CC(C)(C)CN1Cc2cc3c(cc2NCCC1=O)OCO3,cytotoxicity at 70.5 h,23.7%
COc1cccc(OC)c1OCCn1c(C)c(C)oc1=O,cytotoxicity at 70.5 h,0.271%
CS(=O)(=O)c1ccc(OCCNCc2ccc(F)cc2)cc1,cytotoxicity at 70.5 h,-1.74%
CC(=O)c1cccc(OCCCC(=O)NC(C#N)CC(C)C)c1 (configuration not stated),cytotoxicity at 70.5 h,-9.77%
Cc1nc(C2(NCC(=O)NCCc3cccs3)CCCC2)no1,cytotoxicity at 70.5 h,-9.55%
c1cc2c(cc1-n1nc(C3CC3)nc1-c1csnn1)OCCO2,cytotoxicity at 70.5 h,2.73%
O=C(c1ccc(O)c(Cl)c1)N1CCC(c2n[nH]c(C3CC3)n2)CC1,cytotoxicity at 70.5 h,36.5%
NC(=O)Nc1ccc(C(=O)NCCn2cccc2)cc1,cytotoxicity at 70.5 h,-11.7%
O=C([C@H]1C[C@H]2OCC[C@H]2N(CC2CC2)C1)N1CCCCO1,cytotoxicity at 70.5 h,-4.54%
c1ccc(-n2nnnc2CNCc2ccc3c(c2)OCCO3)cc1,cytotoxicity at 70.5 h,-8.49%
Cc1cc2[nH]c(=O)c(=O)[nH]c2cc1S(=O)(=O)NC1CCC(C)CC1 (configuration not stated),cytotoxicity at 70.5 h,-5.16%
CCOc1cccc(CCNC(=O)Cc2cccc(O)c2)n1,cytotoxicity at 70.5 h,-7.71%
Oc1ccc(N2CCN(Cc3cc4c(cc3Br)OCCO4)CC2)cc1,cytotoxicity at 70.5 h,5.3%
CC(C)(C)C(O)CN1CCN(CC(=O)NC(C2CC2)C2CC2)CC1 (configuration not stated),cytotoxicity at 70.5 h,2.37%
COCCN1CCO[C@H]2[C@H](OCc3cccc(C)n3)CC[C@@H]21,cytotoxicity at 70.5 h,-2.63%
O=C(CCC1CCCO1)NCc1ccc(Br)cc1F (configuration not stated),cytotoxicity at 70.5 h,12.7%
CCn1c(CC2CCN(S(=O)(=O)c3cccc(C)c3)CC2)nn(C)c1=O,cytotoxicity at 70.5 h,-4.11%
Cc1ccc2cnn(CCC(=O)Nc3c(C)nn(C)c3C)c2c1,cytotoxicity at 70.5 h,-6.3%
O=C(Cc1ccsc1)N1CCC2(CCCN(CC3CCOCC3)C2)C1 (configuration not stated),cytotoxicity at 70.5 h,1.53%
CC(=O)Nc1ccc(CNc2cccc(OCCF)c2)cc1,cytotoxicity at 70.5 h,-5.76%
CCN(CC1CCCO1)C(=O)Nc1cccc(N2CCOCC2)c1 (configuration not stated),cytotoxicity at 70.5 h,0.519%
CCCn1c(C)c(CC(=O)NC(C)CO)c2c1CC(C)(C)CC2=O (configuration not stated),cytotoxicity at 70.5 h,9.89%
Cc1ccc(N2CCc3c(CN(C)Cc4ccco4)cncc3C2)nn1,cytotoxicity at 70.5 h,-9.85%
CN(c1ncccc1CNCc1ncc[nH]1)C1CCCCC1,cytotoxicity at 70.5 h,-13.1%
Cn1cc(CN2CCn3cc(CNC(=O)CC4CC4)nc3C2)cn1,cytotoxicity at 70.5 h,-7.17%
CC1CCCN(S(=O)(=O)NCCCn2ccc3ccccc32)C1 (configuration not stated),cytotoxicity at 70.5 h,-9.54%
Cn1c(CN2CCCCC2)nnc1C1CCCN(C(=O)CCC(N)=O)C1 (configuration not stated),cytotoxicity at 70.5 h,-9%
Cc1cc(Oc2ccccc2)nc(C2CCCCN2)n1 (configuration not stated),cytotoxicity at 70.5 h,13.4%
Cc1cc(C(=O)N2C[C@H]3CCC[C@@]3(CO)C2)c2ccc(F)cc2n1,cytotoxicity at 70.5 h,-1.1%
O=c1cc(CN2CCCCC2c2cccc(F)c2)[nH]c2ncnn12 (configuration not stated),cytotoxicity at 70.5 h,-10.8%
CSCCC(NC(=O)c1ccc2ccccc2n1)C(=O)NC(C)C (configuration not stated),cytotoxicity at 70.5 h,-3.96%
Cc1cccc(CN2CCc3c(nc(N4CCC(C)CC4)[nH]c3=O)C2)n1,cytotoxicity at 70.5 h,-9.37%
Cc1ccc(CN(CC(=O)N2CCOC(C)C2)C2CC2)cc1 (configuration not stated),cytotoxicity at 70.5 h,-6.74%
CC(=O)N1CCCC1c1nnn2cc(Nc3ccccc3)ccc12 (configuration not stated),cytotoxicity at 70.5 h,-5.52%
Cc1nccn1[C@@H]1CC[C@@H](N(C)S(=O)(=O)c2ccccc2F)[C@H]1O,cytotoxicity at 70.5 h,-3.2%
Cc1cc(C)c(CNC(=O)NCCc2cccnc2)c(=O)[nH]1,cytotoxicity at 70.5 h,-10.1%
